Assay results taken from US10098867B2, “Use of phytocannabinoids in the treatment of ovarian carcinoma” (GW Research Limited, priority 2013, dated 2018).

What was measured:
[1] = tested on: ovarian carcinoma cell line, A2780; assay: MTT cell viability assay, combinations of phytocannabinoids (Example 2); format: cell-based; conditions: Homo sapiens, A2780 cells
Procedure: (§1) An ovarian carcinoma cell line, A2780 was grown and maintained in RPMI 1640 medium supplemented with 10% fetal bovine serum at 37° C., 5% CO2. The cells were plated in 96-well culture plates at a density of 1×10^4 cells/well and allowed to adhere at 37° C. for 24 hours.
The different phytocannabinoid combinations that were tested were: A: cannabidiol (CBD) in combination with tetrahydrocannabivarin (THCV) and B: CBD in combination with cannabigerol (CBG).
The cells were starved with 1% serum overnight. In Experiment A various doses of CBD (1 nM-10 μM) were tested in the absence or presence of 1 hours pre-treatment of THCV (1 μM) for various incubation periods. In Experiment B various doses of CBD (1 nM-10 μM) were tested in the absence or presence of CBG (1 nM-100 μM) for various incubation periods.
A cell viability assay, MTT, was performed following four different incubation times of 24 hours, 48 hours (CBG combination only), 72 hours and 96 hours.
(§2) The supernatant was removed and MTT (3-(4,5-dimethylthiazol-2-yl)-2,5-diphenyltetrazolium bromide) was added for 4 hours. The ability of cells to form formazan crystals by active mitochondrial respiration was determined by using a Microplate reader after dissolving the crystals in DMSO.
(§3) Cytotoxicity was expressed as a relative percentage of the absorbance measured at 540 nm in the control and drug-treated cells. IC50 values were also calculated.
(§4) In all experiments data were presented as the mean and analysed using ANOVA followed by Dunnet's t-test; n=4.

[2] = tested on: ovarian carcinoma cell line, A2780; assay: MTT cell viability assay, single phytocannabinoids (Example 1); format: cell-based; conditions: A2780 cells; for IC50: MTT
Procedure: as §1
The cells were starved with 1% serum overnight, then treated with various concentrations of different phytocannabinoid ([…]) for various incubation periods.
The different phytocannabinoids tested were: cannabidiol (CBD); cannabidiol acid (CBDA); cannabigerol (CBG); cannabigerolic acid (CBGA); cannabigerol propyl variant (CBGV); and tetrahydrocannabivarin (THCV).
A cell viability assay, MTT, was performed following four different incubation times of 24 hours, 48 hours, 72 hours and 96 hours.
as §2, §3, §4

[3] = A2780, 24 h, Experiment A (CBD with or without 1 hour pre-treatment with THCV 1 μM), 24 hours
[4] = A2780, 72 h, Experiment A (CBD with or without 1 hour pre-treatment with THCV 1 μM), 72 hours
[5] = A2780, 96 h, Experiment A (CBD with or without 1 hour pre-treatment with THCV 1 μM), 96 hours
[6] = Homo sapiens, 24 hours incubation
[7] = Homo sapiens, 48 hours incubation
[8] = Homo sapiens, 72 hours incubation
[9] = Homo sapiens, 96 hours incubation
[10] = A2780, 24 h, Experiment B (CBD in absence or presence of CBG), 24 hours
[11] = A2780, 48 h, Experiment B (CBD in absence or presence of CBG), 48 hours
[12] = A2780, 72 h, Experiment B (CBD in absence or presence of CBG), 72 hours
[13] = A2780, 96 h, Experiment B (CBD in absence or presence of CBG), 96 hours
[14] = 24 hours after the cannabinoids were added

CCCc1cc(O)c2c(c1)OC(C)(C)[C@@H]1CCC(C)=C[C@@H]21 [THCV, Tetrahydrocannabivarin]
IC50 [1, 3]: 16.2 µM | IC50 [1, 4]: 14.8 µM | IC50 [1, 5]: 10.5 µM | IC50 [2, 6]: 8 µM | IC50 [2, 7]: 5.75 µM | IC50 [2, 8]: 8.75 µM | IC50 [2, 9]: 9 µM

CCCc1cc(O)c(C/C=C(\C)CCC=C(C)C)c(O)c1 [CBGV, Cannabigerol propyl variant]
IC50 [2, 6]: 6 µM | IC50 [2, 7]: 3.5 µM | IC50 [2, 8]: 4 µM

Cannabigerolic acid [CBGA]
IC50 ([2]; 24 hours incubation): 12.5 µM | IC50 ([2]; 48 hours incubation): 9.9 µM | IC50 ([2]; 72 hours incubation): 9.25 µM

C=C(C)[C@@H]1CCC(C)=C[C@H]1c1c(O)cc(CCCCC)c(C(=O)O)c1O [CBDA, Cannabidiolic acid]
IC50 [2, 6]: 16 µM | IC50 [2, 7]: 9.5 µM | IC50 [2, 8]: 10 µM | IC50 [2, 9]: 11.8 µM

C=C(C)[C@@H]1CCC(C)=C[C@H]1c1c(O)cc(CCCCC)cc1O [CBD, Cannabidiol]
IC50 [1, 3]: 12.5 µM | IC50 [1, 10]: 11.8 µM | IC50 [1, 11]: 6.85 µM | IC50 [1, 4]: 5.87 µM | IC50 [1, 12]: 7.92 µM | IC50 [1, 5]: 5.62 µM | IC50 [1, 13]: 4.43 µM | potency in words [2, 14]: very potent | IC50 [2, 6]: 0.98 µM | IC50 [2, 7]: 0.95 µM | IC50 [2, 8]: 1.9 µM | IC50 [2, 9]: 3.63 µM

CCCCCc1cc(O)c(C/C=C(\C)CCC=C(C)C)c(O)c1 [CBG, Cannabigerol]
IC50 [1, 10]: 13.9 µM | IC50 [1, 11]: 9.48 µM | IC50 [1, 12]: 9.96 µM | IC50 [1, 13]: 8.96 µM | potency in words [2, 14]: very potent | potency in words ([2]; after 48 hours): marginally more potent than CBD | IC50 [2, 6]: 2 µM | IC50 [2, 7]: 0.83 µM | IC50 [2, 8]: 0.85 µM | IC50 [2, 9]: 3.38 µM
